Test results published in ChEMBL document CHEMBL4823308, “Optimization of Triarylpyridinone Inhibitors of the Main Protease of SARS-CoV-2 to Low-Nanomolar Antiviral Potency” (ACS Med Chem Lett, 2021).
≈ marks a conversion by molar mass, not a printed value.

What was measured:
[1] = in vitro; conditions: human, 16HBE14o- cells
Description: (§1) Cytotoxicity against human 16HBE14o- after 72 hrs by MTT assay

[2] = in vitro; conditions: chlorocebus sabaeus, Vero E6 cells
Description: (§2) Cytotoxicity against African green monkey Vero E6 cells after 72 hrs by MTT assay

[3] = pampa, pH 7.4, 18 h
Description: (§3) Permeability of compound in PBS at pH 7.4 after 18 hrs by PAMPA

[4] = Aqueous solubility of the compound in Britton-Robinson buffer at pH 6.5 after 48 hrs by shake flask method; type: physicochemical
[5] = tested on: Vero C1008; conditions: chlorocebus sabaeus, vero c1008, 72 h
Description: as §2

[6] = tested on: 16HBE14o-; conditions: human, 72 h
Description: as §1

[7] = tested on: SARS-CoV-2; conditions: 16hbe14o-
Description: Antiviral activity against SARS-CoV-2 infected in 16HBE14o- cells assessed as inhibition of viral replication after 1 day by Nano-Glo luciferase assay

[8] = in vitro; conditions: PAMPA, pH 7.4
Description: as §3

Structure (SMILES)	CC50 at 72 h [1]	permeability [3]	solubility thermodynamic at 48 h [4]	CC50 [5]	other results
CCC(CC)COC(=O)[C@H](C)N[P@](=O)(OC[C@H]1O[C@@](C#N)(c2ccc3c(N)ncnn23)[C@H](O)[C@@H]1O)Oc1ccccc1	41 µM				CC50 at 72 h [2]: 72 µM
CCCOc1cc(Cl)cc(-c2cc(-c3ccccc3C#N)cn(-c3cccnc3)c2=O)c1	20 µM				CC50 at 72 h [2]: 22 µM
N#Cc1ccccc1-c1cc(-c2cc(Cl)cc(OCCC(F)(F)F)c2)c(=O)n(-c2cccnc2)c1	25 µM	4 10^-6 cm/s	25 µg/mL (≈ 50.4 µM)		CC50 at 72 h [2]: 22 µM
N#Cc1ccccc1-c1cc(-c2cc(Cl)cc(OCC3CC3)c2)c(=O)n(-c2cccnc2)c1	> 100 µM	4.27 10^-6 cm/s	3 µg/mL (≈ 6.61 µM)		CC50 at 72 h [2]: > 100 µM
Cn1cc(-c2cc(-c3cc(Cl)c(F)c(OCc4ccccc4Cl)c3)c(=O)n(-c3cccnc3)c2)c(=O)[nH]c1=O	> 32.5 µM		116 µg/mL (≈ 206 µM)	> 32.5 µM	
Cc1ncoc1COc1cc(Cl)cc(-c2cc(-c3c[nH]c(=O)[nH]c3=O)cn(-c3cccnc3)c2=O)c1		0.24 10^-6 cm/s	168 µg/mL (≈ 333 µM)		
Cn1cc(-c2cc(-c3cc(Cl)cc(OCc4scnc4C(F)(F)F)c3)c(=O)n(-c3cccnc3)c2)c(=O)[nH]c1=O	> 100 µM	1.16 10^-6 cm/s	24.8 µg/mL (≈ 42.2 µM)	> 100 µM	
Cc1scnc1COc1cc(Cl)cc(-c2cc(-c3c[nH]c(=O)[nH]c3=O)cn(-c3cccnc3)c2=O)c1				> 100 µM	CC50 [6]: 22 µM
O=c1[nH]cc(-c2cc(-c3cc(Cl)c(F)c(OCc4ccccc4Cl)c3)c(=O)n(-c3cccnc3)c2)c(=O)[nH]1	> 95 µM	0.73 10^-6 cm/s	21.8 µg/mL (≈ 39.5 µM)	> 80 µM	
Cc1ocnc1COc1cc(Cl)cc(-c2cc(-c3ccccc3C#N)cn(-c3cccnc3)c2=O)c1		3.04 10^-6 cm/s	13.1 µg/mL (≈ 26.5 µM)		
Cn1cc(-c2cc(-c3cc(Cl)cc(OCC4CC4)c3)c(=O)n(-c3cccnc3)c2)c(=O)[nH]c1=O	> 100 µM	3.25 10^-6 cm/s	14.2 µg/mL (≈ 29.8 µM)	82 µM	
Cn1cc(-c2cc(-c3cc(Cl)cc(OCc4ocnc4C(F)(F)F)c3)c(=O)n(-c3cccnc3)c2)c(=O)[nH]c1=O		1.03 10^-6 cm/s	34.5 µg/mL (≈ 60.3 µM)		
Cn1cc(-c2cc(-c3cc(Cl)cc(OCCC(F)(F)F)c3)c(=O)n(-c3cccnc3)c2)c(=O)[nH]c1=O	95 µM	2.26 10^-6 cm/s	57 µg/mL (≈ 110 µM)	> 100 µM	
O=c1[nH]cc(-c2cc(-c3cc(Cl)cc(OCc4scnc4C(F)(F)F)c3)c(=O)n(-c3cccnc3)c2)c(=O)[nH]1	> 100 µM			> 100 µM	EC50 [7]: Not Active
O=c1[nH]cc(-c2cc(-c3cc(Cl)cc(OCc4ocnc4C(F)(F)F)c3)c(=O)n(-c3cccnc3)c2)c(=O)[nH]1	> 100 µM	0.57 10^-6 cm/s		> 100 µM	EC50 [7]: Not Active
Cc1ocnc1COc1cc(Cl)cc(-c2cc(-c3c[nH]c(=O)[nH]c3=O)cn(-c3cccnc3)c2=O)c1			7.6 µg/mL (≈ 15.1 µM)		
O=C(N[C@H](CO)[C@H](O)c1ccc([N+](=O)[O-])cc1)C(Cl)Cl [CHLORAMPHENICOL]					Papp at 18 h [8]: 5 ×10⁻⁶ cm/s
Cn1c(=O)c2[nH]cnc2n(C)c1=O.O [THEOPHYLLINE]					Papp at 18 h [8]: 0.3 ×10⁻⁶ cm/s
